Results as given in patent US20030032771A1, “Peptide inhibitors of cellular proliferation” (priority 2001, published 2003).

Test system: Drosophila early embryos (syncytial blastoderm)
Assay: Cytological analysis of mitosis in live Drosophila melanogaster embryos after microinjection (time-lapse confocal microscopy)
Type: in vivo
Experimental: Embryo microinjections. Microinjections of 0-2 hour Drosophila embryos were carried out as described previously (Sharp et al., J. Cell Biol. 144:125-138 (1999)). Briefly, embryos were initially injected with rhodamine-conjugated bovine tubulin (purchased from Molecular Probes or made in our own laboratory) allowed to recover for 5 minutes and then injected with antibodies or with buffer alone for controls. Because, in our hands, tubulin injections prior to the cortical migration of nuclei at cycle 10 […] normally halts development, embryos were injected with antibodies during cycle 11.
Time-lapse laser scanning confocal microscopy. All images were acquired on a Leica TCS SP confocal microscope run by the Leica TCS software. Time-series were generated using the ‘Time Series’ function contained in the control panel. Each image results from two accumulated (averaged) scans of the sample and new images were acquired every 5 seconds. Because changes in the MT arrays of early embryos occur so quickly, all of the images shown and analyzed in this study represent 1 focal plane (no z-series' were performed). This allowed for the highest temporal and spatial resolution with the least amount of bleaching and other damage resulting from multiple laser scans.
The peptide expressed as described in Example 1 was delivered to Drosophila early embryos (synicytial blastoderm) by microinjections. Drosophila is a much studied organism; its genome has been fully sequenced and its genetics and biochemistry are well understood. In addition, it provides a convenient system for live cytological analyses of mitosis. In the early embryo (syncytial blastoderm) the nuclei form a two-dimensional sheet interconnected by cytoplasm, which proceed through mitosis meta-cynchronously. Because of this, it is possible to inject fluorescent probes like rhodamine tubulin into fly embryos that are transgenically carrying Green Fluorescent protein (GFP)-labeled chromosomes to watch chromosome move on spindle microtubules in real-time. […]

How did the “formation of two daughter nuclei on mitotic spindles (chromosome separation from the metaphase plate)” value (embryo microinjected with peptide, still images at about 80 seconds intervals, FIG. 5 panels C-E, rhodamine tubulin, GFP-histone) turn out when “GEKETPVQKCQRLQIEMNELLNEVAALQVDRKVADEEKQSYDAVVATVISTAR (Drosophila melanogaster) [peptide underlined in FIG. 4]” was run?
Its value is “no spindles upon which two daughter nuclei are formed”.

And the “defects in spindle structure” value (embryos injected with the peptide, during mitosis)?
Its value is “no significant defects in spindle structure”.

And the “ability of chromosomes to separate in proliferative cells” value (initial studies, peptide-injected Drosophila embryos)?
Its value is “strongly and specifically inhibits”.
